How the values were obtained:
[1] = system: Plasmodium falciparum; experiment: Antimalarial activity after 48 hrs against chloroquine-resistant Plasmodium falciparum W2 by [3H]hypoxanthine uptake; assay type: functional, organism-based
[2] = system: Plasmodium falciparum; experiment: Antimalarial activity after 48 hrs against atovaquone-resistant Plasmodium falciparum FCR3 by [3H]hypoxanthine uptake; assay type: functional, organism-based

Row | SMILES | IC50 [1] [µM] | IC50 [2] [µM]
1 | CCn1cc/c(=N\c2cccc(CCc3ccc(C(F)(F)F)cc3)c2)c(Cl)c1 | 1.6 | 1.87
2 | CC[N+](C)(CC)Cc1cc(/N=c2\ccn(C)cc2S(=O)(=O)N(C)C)ccc1OC | > 50 | > 10
3 | CCn1cc/c(=N\c2ccc(CCc3ccccc3)cc2)c(Cl)c1 | > 10 | 3.74
4 | CCn1cc/c(=N\c2cccc(CCc3ccccc3)c2)c(N)c1 | 1.67 | 2.08
5 | CCN(CC)Cc1cc(/N=c2\ccn(C)c(C)c2)ccc1O | 20.7 | 8.09
6 | CCN(CC)Cc1cc(/N=c2\ccn(C)cc2C)ccc1O | 33 | > 10
7 | Cn1cc/c(=N\c2cccc(CCc3ccccc3)c2)c(Cl)c1 | 4.75 | 2.89
8 | COc1ccc(CCc2cccc(/N=c3\ccn(C)cc3Cl)c2)cc1 | 5.24 | 5.12
9 | CCn1cc(Cl)c(=Nc2cccc(CCc3ccc(OC(F)(F)F)cc3)c2)c(Cl)c1 | 0.94 | 2.8
10 | CCN(CC)Cc1cc(N=c2ccn(C)cc2)ccc1O | 8.61 | 7.9
11 | CCn1cc/c(=N\c2cccc(CCc3ccc(OC(F)(F)F)cc3)c2)c(Cl)c1 | 1.07 | 1.7
12 | CCn1cc/c(=N\c2cccc(CCCc3ccccc3)c2)c(Cl)c1 | 2.43 | 2.25
13 | On1cc/c(=N\c2cccc(CCc3ccccc3)c2)c(Cl)c1 | > 8900 | > 8900
14 | CCn1cc/c(=N\c2cccc(CCc3ccccc3)c2)c(Cl)c1 | 3.46 | 3.53
15 | CCn1cc/c(=N\c2cccc(CCc3ccc(Cl)cc3)c2)c(Cl)c1 | 3.24 | 2.17
16 | CCn1cc/c(=N\c2cccc(CCc3ccc(OC)cc3)c2)c(Cl)c1 | 3.44 | 3.95
17 | CCn1cc/c(=N\c2ccccc2CCc2ccccc2)c(Cl)c1 | 6.77 | 3.19
18 | Cn1cc/c(=N\c2cccc(CCc3ccccc3)c2)c(N)c1 | 1.47 | 2.21
19 | CC[N+](C)(CC)Cc1cc(/N=c2\ccn(C)c(C)c2)ccc1O | > 50 | 9.86
20 | CCn1cc/c(=N\c2cccc(CCc3ccc(OC(F)(F)F)cc3)c2)c(N)c1 | 3.91 | 1.83
21 | O=C1C(O)=C([C@H]2CC[C@H](c3ccc(Cl)cc3)CC2)C(=O)c2ccccc21 [ATOVAQUONE] | – | 1.89
22 | Cc1nc(C)c(Cl)c(O)c1Cl [CLOPIDOL] | 9.73 | 3.37

Reference: ChEMBL document CHEMBL1158442, “Design, synthesis and structure-activity relationships of (1H-pyridin-4-ylidene)amines as potential antimalarials” (Bioorg Med Chem Lett, 2009)
